The target of test [1] is T1, ArgA from E. coli (Escherichia coli, UniProt P0A6C5).
T1 construct: structural gene overexpressed from pZ8-1 in wild-type C. glutamicum ATCC 13032; crude extract
T1 sequence (P0A6C5 1-443): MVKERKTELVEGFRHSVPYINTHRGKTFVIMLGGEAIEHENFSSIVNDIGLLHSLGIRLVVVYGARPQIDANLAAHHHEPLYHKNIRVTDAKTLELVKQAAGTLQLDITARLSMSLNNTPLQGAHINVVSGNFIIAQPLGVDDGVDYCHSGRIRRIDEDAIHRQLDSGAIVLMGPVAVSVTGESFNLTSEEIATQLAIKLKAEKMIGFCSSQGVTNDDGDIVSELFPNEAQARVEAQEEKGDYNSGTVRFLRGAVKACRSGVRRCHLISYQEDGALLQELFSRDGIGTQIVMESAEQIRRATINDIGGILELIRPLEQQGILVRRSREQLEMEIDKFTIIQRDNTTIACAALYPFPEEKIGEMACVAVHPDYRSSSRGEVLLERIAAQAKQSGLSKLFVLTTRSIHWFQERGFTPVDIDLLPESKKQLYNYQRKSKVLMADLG
As to the kind of experiment: DTNB assay of CoA release at […] nm, crude extract. It is filed as biochemical. Conditions: 500 mM L-glutamate, 0.2 mM acetyl-CoA, 0.2 mM DTNB, 100 mM Tris-HCl pH 7.5, 25 C; wild-type C. glutamicum background with own NAGS activity.

The target in test [2] is T2, Cg3035 (Corynebacterium glutamicum, UniProt Q8NM40).
T2 construct: gene Cgl2740; complete ORF, untagged as far as told, overexpressed from pZ8-1 in C. glutamicum ATCC 13032 and its cg3035 deletion mutant; crude extract
As to the kind of experiment: DTNB assay of CoA release at […] nm, crude extract. It counts as biochemical. Conditions: 500 mM L-glutamate, 0.2 mM acetyl-CoA, 0.2 mM DTNB, 100 mM Tris-HCl pH 7.5, 25 C; overexpressing strain against deletion mutant; no acetyl-CoA consumption without glutamate.

We go through one molecule from PMC3827942, “A novel type of N-acetylglutamate synthase is involved in the first step of arginine biosynthesis in Corynebacterium glutamicum” (BMC Genomics, 2013).

T2 sequence (Q8NM40 entry or part of it): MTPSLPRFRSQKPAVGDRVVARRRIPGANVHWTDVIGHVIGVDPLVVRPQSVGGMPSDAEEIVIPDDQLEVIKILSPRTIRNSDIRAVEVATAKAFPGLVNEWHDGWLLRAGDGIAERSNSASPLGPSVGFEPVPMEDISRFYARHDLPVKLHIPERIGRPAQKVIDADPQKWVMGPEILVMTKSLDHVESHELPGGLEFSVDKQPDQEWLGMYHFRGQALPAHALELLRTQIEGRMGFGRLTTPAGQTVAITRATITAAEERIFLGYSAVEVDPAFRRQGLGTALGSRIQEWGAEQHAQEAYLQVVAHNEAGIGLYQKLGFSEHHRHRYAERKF

With `CC(=O)SCCNC(=O)CCNC(=O)[C@H](O)C(C)(C)COP(=O)(O)OP(=O)(O)OC[C@H]1O[C@@H](n2cnc3c(N)ncnc32)[C@H](O)[C@@H]1OP(=O)(O)O` [acetyl-CoA], the “DTNB assay of CoA release at 412 nm, crude extract” value is “ArgA from E. coli was found to confer additional NAGS activity” in test [1] and “the function of Cg3035 to use acetyl-CoA for acetylation of glutamate was demonstrated” in test [2].
